Counter-ions that a name gives are not always drawn. Like-named read-outs stand apart in the source and are kept apart here.
Legend:
cholesterol biosynthesis = assay: Inhibition of cholesterol biosynthesis; format: biochemical
Mouse = assay: Acute toxicity in mouse; conditions: aqueous suspension
Protocol: (§1) Acute toxicity of ML-236B carboxylic acid derivatives (I) was determined in oral and intraperitoneal administration (both as an aqueous suspension).

Rat = assay: Acute toxicity in rat; conditions: aqueous suspension
Protocol: as §1

[1] = tested on: total serum cholesterol in beagle dogs; assay: Lowering activity of blood cholesterol in beagle dogs; format: in vivo, beagle dog; conditions: for inhibition in vivo at 25 mg/kg/day / inhibition in vivo at 100 mg/kg/day: Canis lupus familiaris, po, 120 h, read-out: Lowering rate of total serum cholesterol
Text: The test was to orally administer an encapsulated test sample twice per day, in the morning (9 o'clock) and evening (16 o'clock), for continuous 5 days, collect a blood sample in the morning after 5 days and determine a total cholesterol level in serum by a conventional method.

[2] = tested on: serum cholesterol in rats; assay: Lowering activity of blood cholesterol in rats; format: in vivo, rat; conditions: for inhibition in vivo at 5 mg/kg / inhibition in vivo at 20 mg/kg: Rattus norvegicus, po, 18 h, read-out: Lowering rate of serum cholesterol
Protocol: A lowering activity of blood cholesterol in rats was assayed on rats. The test was to orally administer a test sample suspended in water, collect a blood sample after 18 hours and determine a cholesterol level in serum by a conventional method.

[3] = target: T1, 3-hydroxy-3-methylglutaryl-CoA reductase (Rattus norvegicus, UniProt P51639); assay: Inhibition of 3-hydroxy-3-methylglutaryl-CoA reductase; format: biochemical
T1 construct: Employed as an enzyme microsome of rat liver; from tissue; host or cells: rat liver microsomes
T1 sequence (P51639 1-887): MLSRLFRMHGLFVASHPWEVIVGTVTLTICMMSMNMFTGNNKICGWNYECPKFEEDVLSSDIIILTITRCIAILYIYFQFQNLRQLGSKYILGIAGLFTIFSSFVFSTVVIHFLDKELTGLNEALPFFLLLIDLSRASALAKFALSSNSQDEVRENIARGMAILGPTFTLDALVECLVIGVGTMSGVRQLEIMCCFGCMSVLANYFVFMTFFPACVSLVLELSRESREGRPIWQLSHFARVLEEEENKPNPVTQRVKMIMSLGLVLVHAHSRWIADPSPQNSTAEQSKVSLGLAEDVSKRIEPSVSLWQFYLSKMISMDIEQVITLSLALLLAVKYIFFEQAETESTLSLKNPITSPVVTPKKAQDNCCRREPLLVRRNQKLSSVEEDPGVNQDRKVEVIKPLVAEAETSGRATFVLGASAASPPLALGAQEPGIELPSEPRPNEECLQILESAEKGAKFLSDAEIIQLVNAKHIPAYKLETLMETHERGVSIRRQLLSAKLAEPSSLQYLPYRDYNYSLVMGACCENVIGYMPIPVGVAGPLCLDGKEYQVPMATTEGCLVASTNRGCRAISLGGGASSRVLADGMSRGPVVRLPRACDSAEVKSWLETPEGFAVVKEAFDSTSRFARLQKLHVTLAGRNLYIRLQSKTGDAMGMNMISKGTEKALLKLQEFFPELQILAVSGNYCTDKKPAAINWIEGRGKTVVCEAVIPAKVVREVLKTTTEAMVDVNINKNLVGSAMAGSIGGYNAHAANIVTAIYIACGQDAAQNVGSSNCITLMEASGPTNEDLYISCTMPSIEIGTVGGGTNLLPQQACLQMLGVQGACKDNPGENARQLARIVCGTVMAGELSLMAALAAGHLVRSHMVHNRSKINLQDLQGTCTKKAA
Text: Inhibition activity of cholesterol biosynthesis [determined according to the method disclosed in J. Biol. Chem., 234, 2835 (1959)] and inhibition activity on 3-hydroxy-3-methylglutaryl-CoA reductase [determined according to the method disclosed in Anal. Biochem., 31, 383 (1969)] of these compounds are summarized in Table 1.
*Employed as an enzyme microsome of rat liver.

Acute toxicity in mouse = conditions: in vivo, ip
Protocol: as §1

Acute toxicity in rat = conditions: in vivo, po
Protocol: as §1

[4] = beagle dogs, 25 mg/kg/day, oral twice per day, 5 days
[5] = beagle dogs, 100 mg/kg/day, oral twice per day, 5 days
[6] = rats, 5 mg/kg, oral, after 18 hours, 5 mg/kg
[7] = rats, 20 mg/kg, oral, after 18 hours, 20 mg/kg
[8] = enzyme: microsome of rat liver, read-out: Concentration to inhibit 50% of 3-hydroxy-3-methylglutaryl-CoA reductase (converted)
[9] = LD50, mouse, aqueous suspension
[10] = rats, 5 mg/kg, oral, after 18 hours
[11] = rats, 20 mg/kg, oral, after 18 hours

| Compound | Concentration to inhibit 50% of cholesterol biosynthesis (cholesterol biosynthesis) [µg/mL] | IC50 [3, 8] [nM] | LD50 (Acute toxicity in mouse; [9]) [mg/kg] | LD50 (Acute toxicity in rat; LD50, rat, aqueous suspension) [mg/kg] | inhibition in vivo at 25 mg/kg/day [1, 4] [%] | inhibition in vivo at 100 mg/kg/day [1, 5] [%] | inhibition in vivo at 5 mg/kg [2, 10] [%] | inhibition in vivo at 20 mg/kg [2, 11] [%] | other results |
| --- | --- | --- | --- | --- | --- | --- | --- | --- | --- |
| CCC(C)C(=O)OC1CCC=C2C=CC(C)C(CCC(O)CC(O)CC(=O)O)C21 (centres unmarked) [Lysine, Lysine salt of ML-236B carboxylic acid] | 0.006 | – | – | – | – | – | – | – | LD50 (Mouse; i.p.): > 500 mg/kg; LD50 (Mouse; p.o.): > 5,000 mg/kg; LD50 (Rat; i.p.): > 500 mg/kg; LD50 (Rat; p.o.): > 5,000 mg/kg; Lowering rate of total serum cholesterol [1, 4]: 24%; Lowering rate of total serum cholesterol [1, 5]: 44%; Lowering rate of serum cholesterol [2, 6]: 16.9%; Lowering rate of serum cholesterol [2, 7]: 23.8% |
| CCC(C)C(=O)OC1CCC=C2C=CC(C)C(CCC(O)CC(O)CC(=O)OCc3ccc(C)cc3)C21 (centres unmarked) [4-methylbenzyl, 4-Methylbenzyl ML-236B carboxylate] | 0.01 | 390 | > 500 | > 2000 | 30 | 41 | 13 | 26 | – |
| CCCCOC(=O)CC(O)CC(O)CCC1C(C)C=CC2=CCCC(OC(=O)C(C)CC)C21 (centres unmarked) [n-butyl, n-Butyl ML-236B carboxylate] | 0.02 | 344 | > 500 | > 2000 | 32 | 46 | 20 | 26 | – |
| CCC(C)C(=O)OC1CCC=C2C=CC(C)C(CCC(O)CC(O)CC(=O)OC(C)C)C21 (centres unmarked) [isopropyl, Isopropyl ML-236B carboxylate] | 0.04 | 355 | > 500 | > 2000 | 19 | 30 | 16 | 25 | – |
| CCC(C)C(=O)OC1CCC=C2C=CC(C)C(CCC(O)CC(O)CC(=O)OCc3ccc(Cl)cc3)C21 (centres unmarked) [4-chlorobenzyl, 4-Chlorobenzyl ML-236B carboxylate] | 0.01 | 375 | > 500 | > 2000 | 20 | 36 | 15 | 21 | – |
| CCCCCCOC(=O)CC(O)CC(O)CCC1C(C)C=CC2=CCCC(OC(=O)C(C)CC)C21 (centres unmarked) [n-hexyl, Hexyl ML-236B carboxylate] | 0.02 | 365 | > 500 | > 2000 | 17 | 29 | 14 | 23 | – |
| CCC(C)C(=O)OC1CCC=C2C=CC(C)C(CCC(O)CC(O)CC(=O)OCC(=O)c3ccc(Br)cc3)C21 (centres unmarked) [4-bromophenacyl, 4-Bromophenacyl ML-236B carboxylate] | 0.01 | 330 | > 500 | > 2000 | 21 | 30 | 17 | 24 | – |
| CCC(C)C(=O)OC1CCC=C2C=CC(C)C(CCC3CC(O)CC(=O)O3)C21 (centres unmarked) [ML-236B] | 0.01 | 12300 | – | – | < 5 | 19 | 11.2 | 17.1 | – |
| CCC(C)C(=O)OC1CCC=C2C=CC(C)C(CCC(O)CC(O)CC(=O)OCC(=O)c3ccc(OC)cc3)C21 (centres unmarked) [4-methoxyphenacyl, 4-Methoxyphenacyl ML-236B carboxylate] | 0.01 | 359 | > 500 | > 2000 | 26 | 39 | 14 | 23 | – |
| CCC(C)C(=O)OC1CCC=C2C=CC(C)C(CCC(O)CC(O)CC(=O)OCc3ccc(OC)cc3)C21 (centres unmarked) [4-methoxybenzyl, 4-Methoxybenzyl ML-236B carboxylate] | 0.01 | – | – | – | – | – | – | – | IC50 [3]: 378 nM; LD50 (Acute toxicity in mouse): > 500 mg/kg; LD50 (Acute toxicity in rat): > 2000 mg/kg; inhibition in vivo at 25 mg/kg/day [1]: 26%; inhibition in vivo at 100 mg/kg/day [1]: 36%; inhibition in vivo at 5 mg/kg [2]: 17%; inhibition in vivo at 20 mg/kg [2]: 20% |
| CCOC(=O)CC(O)CC(O)CCC1C(C)C=CC2=CCCC(OC(=O)C(C)CC)C21 (centres unmarked) [ethyl, Ethyl ML-236B carboxylate] | 0.01 | – | – | – | – | – | – | – | IC50 [3]: 366 nM; LD50 (Acute toxicity in mouse): > 500 mg/kg; LD50 (Acute toxicity in rat): > 2000 mg/kg; inhibition in vivo at 25 mg/kg/day [1]: 13%; inhibition in vivo at 100 mg/kg/day [1]: 19%; inhibition in vivo at 5 mg/kg [2]: 19%; inhibition in vivo at 20 mg/kg [2]: 25% |
| CCC(C)C(=O)OC1CCC=C2C=CC(C)C(CCC(O)CC(O)CC(=O)O)C21 (centres unmarked) [Al, Aluminum ML-236B carboxylate] | 0.006 | – | – | – | – | – | – | – | LD50 (Mouse; i.p.): > 500 mg/kg; LD50 (Mouse; p.o., listed as Al salt): > 2,000 mg/kg; LD50 (Rat; i.p.): > 500 mg/kg; LD50 (Rat; p.o., listed as Al salt): > 2,000 mg/kg; Lowering rate of total serum cholesterol [1, 4]: 26%; Lowering rate of total serum cholesterol [1, 5]: 41%; Lowering rate of serum cholesterol [2, 6]: 18.3%; Lowering rate of serum cholesterol [2, 7]: 22.1% |
| CCC(C)C(=O)OC1CCC=C2C=CC(C)C(CCC(O)CC(O)CC(=O)OCC(=O)c3ccc(C)cc3)C21 (centres unmarked) [4-methylphenacyl, 4-Methylphenacyl ML-236B carboxylate] | 0.01 | 370 | > 500 | > 2000 | 20 | 33 | 14 | 19 | – |
| CCC(C)C(=O)OC1CCC=C2C=CC(C)C(CCC(O)CC(O)CC(=O)OCc3ccccc3)C21 (centres unmarked) [benzyl, Benzyl ML-236B carboxylate] | 0.01 | 401 | > 500 | > 2000 | 24 | 38 | 14 | 24 | – |
| CCC(C)C(=O)OC1CCC=C2C=CC(C)C(CCC(O)CC(O)CC(=O)OCC(=O)c3ccccc3)C21 (centres unmarked) [phenacyl, Phenacyl ML-236B carboxylate] | 0.01 | 380 | > 500 | > 2000 | 32 | 42 | 14 | 21 | – |
| CCC(C)C(=O)OC1CCC=C2C=CC(C)C(CCC(O)CC(O)CC(=O)OC)C21 (centres unmarked) [methyl, Methyl ML-236B carboxylate] | 0.01 | – | – | – | – | – | – | – | IC50 [3]: 355 nM; LD50 (Acute toxicity in mouse): > 500 mg/kg; LD50 (Acute toxicity in rat): > 2000 mg/kg; inhibition in vivo at 25 mg/kg/day [1]: 12%; inhibition in vivo at 100 mg/kg/day [1]: 26%; inhibition in vivo at 5 mg/kg [2]: 18%; inhibition in vivo at 20 mg/kg [2]: 23% |

From patent US4137322A, “ML-236B carboxylic acid derivatives and their use as antihyperlipemic agents” (Sankyo Company Limited, priority 1976, dated 1979)
